# According to patent US9463256B2, “Pretargeting kit, method and agents used therein” (KONINKLIJKE PHILIPS N.V., priority 2010, dated 2016):
# Key:
# [1] = Trans-cyclooctene stability in vivo (blood samples reacted with excess ^111In-tetrazine 28); design: species or system mice; conditions: tumor-free mice, up to 4 days post injection
# Description: Tumor-free mice (n=3 per group) were injected intravenously with CC49-PEG10-TCO-O major (CC49-23a; 8.4 TCO per CC49; 300 μg/100 μL per mouse), CC49-PEG10-TCO-C minor (CC49-27b; 3.3 TCO per CC49, […]), and CC49-TCO-O major without spacer (CC49-20a; 8.0 TCO per CC49, 300 μg/100 μL per mouse). At selected time points (from 1 hour up to 4 days post injection) blood samples were withdrawn from the vena saphena and collected in vials containing heparin. The blood samples were weighed and an excess ^111In-tetrazine 28 was added. After 20 min incubation at 37° C., blood aliquots were 10-fold diluted with PBS and analyzed by SDS-PAGE. The cycloaddition yields were determined from the radioactivity in the bands corresponding to the mAb and the counts were quantified with AIDA Image Analyzer software. The amount of mAb present in blood at each time point (% ID/g blood) was evaluated in three separate groups of mice (n=3), which were injected with the corresponding ^125I—CC49-TCO (300 μg/100 μL per mouse, ca. 0.2 MBq). The data, corrected for mAb clearance, were normalized to 100% ID TCO at t=0.
# This experiment was carried out to expand the series of in vivo TCO stability measurements described in Example 6. […] In the new experiment, following the same procedure, we tested the in vivo stability of a CC49-bound TCO minor without PEG spacer (20b, 6.9 equivalents bound).
# [2] = In vitro reaction yields of CC49-bound TCO with tetrazine probe 28 at low concentration; type: physicochemical; conditions: TCO conjugated to CC49; 1 min at 37° C. in PBS; micromolar concentrations and lower
# Description: To this aim we used a TCO major 20a (k2=19600±1400 M^−1s^−1) and a TCO minor 20b (k2=136700±2300 M^−1s^−1) conjugated to CC49 (6.1 and 6.6 TCOs per molecule for major and minor, respectively). The two mAb solutions were diluted in PBS to obtain TCO concentrations ranging from 1×10^−5M to 1×10^−8M and were reacted with carrier-added ^177Lu-tetrazine (1 eq. with respect to mAb) for 1 min at 37° C. Aliquots of the reaction mixtures (20 μl) where then quenched with an excess of tetrazine 6, added with non-reducing sample buffer and analyzed by SDS-PAGE. The cycloaddition yields were determined from the radioactivity in the bands corresponding to the mAb and the counts were quantified with the AIDA Image Analyzer software. The experiments were repeated in triplicate. As expected for a bimolecular reaction, a decrease in the concentration of the two reactive species in solution translates into lower reaction yields after 1 min incubation (FIG. 18).
# [3] = Second order kinetic constants of the reactions between CC49-TCO constructs and ^177Lu-28; type: physicochemical; conditions: TCO conjugated to CC49, reaction with ^177Lu-28 in PBS, pH 7.4 at 37° C.
# Description: Typically, 1 mg CC49 (5 mg/mL solution in PBS) was modified with 0.6 molar (for kinetic measurements) or 10 molar eq. (for in vivo studies) of TCO-NHS constructs in a total volume of 250 μL PBS. The pH was adjusted to 9 with 1 M sodium carbonate buffer. The reactions were carried out under agitation for 30 min at RT in the dark. Subsequently, the TCO-modified mAbs were extensively washed with PBS using Amicon Ultra-15 centrifugal devices. The numbers of TCO groups per antibody were determined with a tetrazine titration, outlined below.
# Tetrazine-DOTA 28 was radiolabeled with carrier-added ^177Lu. mAb (25 μg) modified with ca. 0.6 molar eq. TCO was reacted with 3 molar eq. of ^177Lu-28 (0.5 nM). mAb (25 μg) modified with ca. 10 molar eq. TCO was reacted with 15 molar eq. of ^177Lu-28 (2.5 nM). The reactions were carried out in 50 μL PBS pH 7.4 at 37° C. for 10 min. The reaction mixtures were analyzed by SDS-PAGE and phosphor imager and the reaction yields were determined from the radioactivity in the bands corresponding to the mAb. The counts were quantified with AIDA Image Analyzer software (Raytest).
# Tetrazine-DOTA 28 was radiolabeled with carrier-added ^177Lu at a specific activity of 3 MBq/μg. ^177Lu-28 (33 nM) was reacted with increasing concentrations of CC49 modified with 1 eq. of TCO (0.33, 1, and 1.67 μM) in 200 μL PBS, pH 7.4 at 37° C. for 5 min. At selected times (15, 30, 45, 60, 90, 120, 180, and 300 sec) a 20 μL sample was withdrawn and quenched with tetrazine 6 (FIG. 5; described in Rossin et al. Angew Chem Int Ed 2010, 49, 3375) (1.5 μL, 5 mg/mL in DMF). Aliquots of each mixture were analyzed by SDS-PAGE and phosphor imager and the cycloaddition yields were determined from the radioactivity in the bands corresponding to the mAb. The counts were quantified with AIDA Image Analyzer software (Raytest).
# The newly synthesized TCO constructs were evaluated with respect to their reactivity towards tetrazine 28. The procedures are described in Example 5.
# [4] = Reactivity of tetrazines, competition experiment against reference tetrazine; type: physicochemical; conditions: reference 3-(5-acetamido-2-pyridyl)-6-(2-pyridyl)-1,2,4,5-tetrazine; reaction with 10b
# Description: A competition experiment was performed to determine the reactivity ratio of a specific tetrazine and 3-(5-acetamido-2-pyridyl)-6-(2-pyridyl)-1,2,4,5-tetrazine (that was chosen as the reference tetrazine), in the inverse-electron demand Diels-Alder reaction with trans-cyclooct-4-ene-1-ol (minor isomer, 10b).
# To acetonitrile (0.100 mL) was added 5 μL of a solution of the specific tetrazine in DMSO (25 mM) and 5 μL of a solution of the reference tetrazine in DMSO (25 mM). This mixture was diluted with water (0.9 mL), and the absolute amounts of both tetrazines were determined by LC-MS/PDA analysis. Subsequently, a solution of trans-cyclooct-4-ene-1-ol (minor isomer, 10b) in DMSO (25 μL 2.5 mM) was added, and the mixture was stirred for 5 min. Again, the absolute amounts of both tetrazines were determined by LC-MS/PDA analysis, and conversions for both tetrazines was calculated. From these conversions, the reactivity ratio of both tetrazines was determined.
Compound,"in vivo stability of CC49-bound TCO (reactive TCO in blood, corrected for mAb clearance) [1]",reaction yields with ^177Lu-tetrazine versus equatorial TCO 20a [2],"Second order kinetic constant, PEG10 Spacer [3]",k2/k2 ref [4]
"O=C(ON1C(=O)CCC1=O)c1ccc(COC2CC/C=C/CCC2)cc1 (stereo not shown) [20b, (E-minor)-2,5-Dioxopyrrolidin-1-yl 4-((cyclooct-4-enyloxy)methyl)benzoate]",only slowly degrade in vivo,significantly higher,,
"O=C(CCOCCOCCOCCOCCOCCOCCOCCOCCOCCOCCOCCOCCNC(=O)c1ccc(NC(=O)OC2CC/C=C/CCC2)cc1)ON1C(=O)CCC1=O (stereo not shown) [27b, (E-minor)-2,5-dioxopyrrolidin-1-yl 1-(4-(((cyclooct-4-en-1-yloxy)carbonyl)amino)phenyl)-1-oxo-5,8,11,14,17,20,23,26,29,32,35,38-dodecaoxa-2-azahentetracontan-41-oate]",unstable in vivo,,(27b) 111600 ± 1800 M^−1s^−1,
"CCCC(=O)Nc1ccc(-c2nnc(-c3ccc(C(F)(F)F)cn3)nn2)nc1 [compound 35, 3-(5-Butyramido-2-pyridyl)-6-(5-(trifluoromethyl)-2-pyridyl)-1,2,4,5-tetrazine]",,,,1.84
"O=C(CCOCCOCCOCCOCCOCCOCCOCCOCCOCCOCCOCCOCCNC(=O)c1ccc(COC2CC/C=C/CCC2)cc1)ON1C(=O)CCC1=O (stereo not shown) [23a, (E-major)-2,5-Dioxopyrrolidin-1-yl 1-(4-((cyclooct-4-en-1-yloxy)methyl)phenyl)-1-oxo-5,8,11,14,17,20,23,26,29,32,35,38-dodecaoxa-2-azahentetracontan-41-oate]",unstable in vivo,,(23a) 16500 ± 1400 M^−1s^−1,
"Cc1nnc(-c2ccccn2)nn1 [compound 40, 3-(2-Pyridyl)-6-methyl-1,2,4,5-tetrazine]",,,,0.25
"CCCC(=O)Nc1ccc(-c2nnc(-c3ccc(F)cn3)nn2)nc1 [compound 38, 3-(5-Fluoro-2-pyridyl)-6-(5-butanamido-2-pyridyl)-1,2,4,5-tetrazine]",,,,0.95
"c1cc(-c2nnc(-c3ccncc3)nn2)ccn1 [compound 42, 3,6-Bis(4-pyridyl)-1,2,4,5-tetrazine]",,,,0.83
